Tests used:
C. albicans [1] = assay: Yeast-hyphae switching assay; type: cell-based; conditions: liquid RPMI media
Protocol: Yeast-hyphae switching assay: Yeast-hyphae (Y-H) switching assays were conducted in liquid RPMI-1640 medium as previously described. Briefly, overnights cultures of C. albicans (grown in PDB) were diluted to a 1:100 in RPMI-1640 and treated with or without UP/CSP ([…]) or ketones (0.005%-0.1%). The cultures were then incubated at 37° C. with shaking (150 rpm). Following incubation, 5 μL of the cultures were transferred to the microscopic slide and imaged under Nikon fluorescent microscope (Nikon Eclipse Ti2, Japan).

C. albicans [2] = assay: C. albicans biofilm inhibition assay (crystal violet); type: cell-based; conditions: for effect of pure ketone on C. albicans biofilms: dose not stated
Protocol: (§1) Biofilm inhibition assay: Biofilm inhibition assays were conducted in 96-well polystyrene microtiter plates (Tarsons Products Pvt. Ltd. India) as previously described. Briefly, bacterial or yeast cells were cultured overnight in LB or PDB and re-inoculated in fresh LB or PDB (1:100 dilution) (with 0.05% glucose) with and without supplementation of postbiotics (5% or 10% v/v) at 37° C. After 24 h of incubation, biofilms were stained with crystal violet (0.1%) for 20 min, washed repeatedly, and the residual biofilm cells (attached to the polystyrene surfaces) were dissolved in 95% ethanol. The planktonic growth was measured at 600 nm, while the biofilms were measured at 575 nm using a Biowave CO8000 cell density meter. For microscopic imaging of biofilms attached to the polystyrene surfaces, the wells were stained with SYTO® 9 dye, and imaged under Nikon fluorescent microscope (Nikon Eclipse Ti2, Japan) using a GFP emission filter.

C. elegans = C. elegans toxicity assay; type: in vivo; conditions: 2-undecanone 0.1%, 7 days
Protocol: C. elegans toxicity assay: C. elegans wild-type strains were maintained on nematode growth medium (NGM) with E. coli OP50 as the feed. […] The control and treatment groups (each consisting of approximately 30 nematodes per well) were suspended in liquid M9 buffer and monitored for 7 days. The live or dead nematodes were counted using the Nikon fluorescent microscope (Nikon Eclipse Ti2, Japan) using a DIC and DAPi (blue LED light) filters and the survival percentage was calculated.

C. albicans [3] = assay: C. elegans infected with C. albicans, treated with 2-undecanone; type: in vivo; conditions: 2-undecanone 0.01%, 7 days; infected untreated 20% survival
Protocol: C. elegans co-infection assays: Wild-type C. elegans were maintained on nematode growth medium (NGM) with E. coli OP50 as the feed, and synchronization was performed as described previously^35. Briefly, C. elegans were collected by aspiration and bleached with 2% sodium hypochlorite and 0.5 N sodium hydroxide to get the eggs. Eggs were transferred to 48-well microliter plates and were incubated for 24 h at 22° C. for hatching. The hatched juveniles were transferred to new E. coli OP50 plates and incubated for 5-7 days to obtain adult nematode. Adults were subsequently used for toxicity, and bacterial or C. albicans colonization assays. For C. albicans infection of C. elegans, the adult nematodes, previously fed on E. coli OP50, were transferred to a C. albicans lawn on NGM agar plate for 4 h. After 4 h, the nematodes were collected in M9 buffer, pipetted into a 96-well, and survival monitored for 7 days. […] The live and dead nematodes were counted under bright-field, and DAPi filter and the nematode survival rates were estimated and plotted. The images of C. elegans were acquired using a Nikon fluorescent microscope (Nikon Eclipse Ti2, Japan).
The present inventors further tested whether 2-undecanone could suppress C. albicans pathogenicity in a C. elegans model by infecting C. elegans with C. albicans.

C. albicans [4] = assay: C. albicans growth profile; type: cell-based
Protocol: as §1, with “Briefly, bacterial or yeast cells were cultured overnight in LB or PDB and re-inoculated in fresh LB or PDB (1:100 dilution) (with 0.05% glucose) with and without supplementation of postbiotics (5% or 10% v/v) at 37° C.” left out

[5] = tested on: unstressed L. plantarum 3297 cells from conic colonies; assay: Cold-shock colony filtrate assay: consolidated circular bundle formation in unstressed conic colony cells; type: cell-based; conditions: cells pre-incubated with lithium chloride (5M) before CSCF
Protocol: An assay was developed to see if the cold-stressed conic colony (−17° C. for 1 h) extracts could potentiate consolidated bundling in unstressed conic colony cells. Briefly, 1 mL of suspension from harvested cold-stressed (treated) and unstressed (control) conic colonies (approximately 5-6 colonies) were resuspended in PBS, vortexed, and sonicated. The extracts were filtered using a 0.2 μm membrane filter to remove the cells. The filtrate was named cold-shock colony filtrates (CSCF). Simultaneously, 1 mL cells from the unstressed colonies were vortexed, sonicated, and pelleted. To these pelleted unstressed cells, 1 mL of CSCF was added, aspirated, and incubated at 37° C. for 3 h. At the same time, colony filtrates (CF) from the unstressed colony and heat-treated (60° C. for 30 min) CSCF were prepared and tested. Following incubation, the aggregation pattern was scrutinized under Nikon fluorescent microscope (Nikon Eclipse Ti2, Japan). As a negative control, one vial of unstressed cells was incubated with 5M lithium chloride ([…]) for 30 min before adding 1 mL of CSCF. […] abolishes the S-layer protein and stalls the ability of the cells to aggregate to form bundles.

## CCCCCC(C)=O [2-heptanone]
C. albicans [1]
  effect of pure ketone on C. albicans hyphae (Y-H transitions): did not show any notable effect
C. albicans [2]
  effect of pure ketone on C. albicans biofilms: did not show any notable effect

## CCCCCCCC(C)=O [2-nonanone]
C. albicans [1]
  effect of pure ketone on C. albicans hyphae (Y-H transitions): did not show any notable effect
C. albicans [2]
  effect of pure ketone on C. albicans biofilms: did not show any notable effect

## CCCCCCCCCC(C)=O [2-undecanone]
C. elegans
  mortality of C. elegans: did not induce any mortality
C. albicans [1]
  effect of pure ketone on C. albicans hyphae (Y-H transitions): effectively controlled Y-H transitions
C. albicans [3]
  survivability of C. albicans infected C. elegans: 50%
C. albicans [2]; 0.005%, PDB, polystyrene
  C. albicans biofilm formation: successful in preventing the biofilm formation
C. albicans [4]; 0.005%
  C. albicans planktonic growth: without compromising the planktonic growth
C. albicans [4]; higher dosage (0.05 or 0.01%), RPMI media
  C. albicans growth profiles: substantial decline in the growth profiles

## [Cl-].[Li+] [lithium chloride]
[5]
  circular bundle formation induced by CSCF: prevented

Source: US20240336889A1, “NOMADIC BACTERIA AND USES THEREOF” (The State of Israel, Ministry of Agriculture & Rural …, priority 2021, published 2024)
